Holding throughout (assay type): functional
For assay [1], the system named is Tetranychus cinnabarinus. The assay can be described thus: Insecticidal activity against Tetranychus cinnabarinus (carmine spider mite) infested on Sieva bean plants leaves exposed to compound formulation at 200 mg/kg assessed as insect mortality measured 2 days post compound treatment. The following applies: 48 h.
For assay [2], the system named is Culex pipiens pallens. The assay can be described thus: Insecticidal activity against Culex pipiens pallens (mosquito) fourth-instar larvae assessed as insect mortality at 0.1 mg/kg measured 2 days post compound treatment. The following applies: 48 h.
Assay [3] deals with Culex pipiens pallens. The assay can be described thus: Insecticidal activity against Culex pipiens pallens (mosquito) fourth-instar larvae assessed as insect mortality at 0.25 mg/kg measured 2 days post compound treatment. The following applies: 48 h.
The test system of assay [4] is Culex pipiens pallens. The assay can be described thus: Insecticidal activity against Culex pipiens pallens (mosquito) fourth-instar larvae assessed as insect mortality at 0.5 mg/kg measured 2 days post compound treatment. Conditions: 48 h.
Assay [5] deals with Mythimna separata. The assay is described as follows: Insecticidal activity against Mythimna separata (Oriental armyworm) fourth-instar larvae infested compound pre-treated corn leaves assessed as insect mortality at 5 mg/kg measured 2 days post compound treatment.
Assay [6] relates to Mythimna separata. The assay is described as follows: Insecticidal activity against Mythimna separata (Oriental armyworm) fourth-instar larvae infested compound pre-treated corn leaves assessed as insect mortality at 10 mg/kg measured 2 days post compound treatment.
Assay [7] relates to Mythimna separata. The assay can be described thus: Insecticidal activity against Mythimna separata (Oriental armyworm) fourth-instar larvae infested compound pre-treated corn leaves assessed as insect mortality at 20 mg/kg measured 2 days post compound treatment.
Assay [8] deals with Tetranychus cinnabarinus. The assay is described as follows: Insecticidal activity against Tetranychus cinnabarinus (carmine spider mite) infested on Sieva bean plants leaves exposed to compound formulation at 100 mg/kg assessed as insect mortality measured 2 days post compound treatment. The following applies: 48 h.
Assay [9] relates to Tetranychus cinnabarinus. The assay can be described thus: Insecticidal activity against Tetranychus cinnabarinus (carmine spider mite) infested on Sieva bean plants leaves exposed to compound formulation at 50 mg/kg assessed as insect mortality measured 2 days post compound treatment. The following applies: 48 h.

`CCCOC(=O)C(=O)OCn1c(-c2ccc(Cl)cc2)c(C#N)c(Br)c1C(F)(F)F`: the mortality – broadly, the share of the test organisms that died – at 200 mg/kg with Tetranychus cinnabarinus [1] came out at 100%. In addition, the mortality at 0.1 mg/kg with Culex pipiens pallens [2] turned out to be 10%. In addition, the mortality at 0.25 mg/kg in the assay on Culex pipiens pallens [3] was 100%. Also, the mortality at 0.5 mg/kg with Culex pipiens pallens [4] came to 100%. For the same compound, the mortality at 5 mg/kg in the assay on Mythimna separata [5] was determined as 0%. For the same compound, the mortality at 10 mg/kg with Mythimna separata [6] was 100%. Also, the mortality at 20 mg/kg in the assay with Mythimna separata [7] stood at 100%.
Consider `COC(=O)C(=O)OCn1c(-c2ccc(Cl)cc2)c(C#N)c(Br)c1C(F)(F)F`, for which the mortality at 10 mg/kg with Mythimna separata [6] is 15%. For the same compound, the mortality at 20 mg/kg with Mythimna separata [7] turned out to be 100%.
As to `N#Cc1c(Br)c(C(F)(F)F)n(COC(=O)C(=O)Nc2ccccc2Cl)c1-c1ccc(Cl)cc1`, in the assay on Tetranychus cinnabarinus [8], the mortality at 100 mg/kg was determined as 51%. Besides, the mortality at 200 mg/kg in the assay on Tetranychus cinnabarinus [1] is 71%. In addition, the mortality at 10 mg/kg with Mythimna separata [6] turned out to be 30%. Besides, the mortality at 20 mg/kg with Mythimna separata [7] stood at 100%.
On to `COCCOC(=O)C(=O)OCn1c(-c2ccc(Cl)cc2)c(C#N)c(Br)c1C(F)(F)F`, for which, in the assay with Tetranychus cinnabarinus [9], the mortality at 50 mg/kg was determined as 94%. For the same compound, the mortality at 100 mg/kg in the assay on Tetranychus cinnabarinus [8] stood at 95%. Also, the mortality at 200 mg/kg with Tetranychus cinnabarinus [1] was 100%. The mortality at 0.1 mg/kg with Culex pipiens pallens [2] came out at 20%. In addition, in the assay on Culex pipiens pallens [3], the mortality at 0.25 mg/kg was found to be 90%. The mortality at 0.5 mg/kg in the assay with Culex pipiens pallens [4] came out at 100%. Moreover, in the assay with Mythimna separata [6], the mortality at 10 mg/kg was 20%. The mortality at 20 mg/kg in the assay with Mythimna separata [7] was 100%.
Turning to `N#Cc1c(Br)c(C(F)(F)F)n(COC(=O)C(=O)NC2CCCCC2)c1-c1ccc(Cl)cc1`, the mortality at 100 mg/kg with Tetranychus cinnabarinus [8] was found to be 46%. In addition, the mortality at 200 mg/kg with Tetranychus cinnabarinus [1] is 76%. Moreover, the mortality at 0.1 mg/kg in the assay with Culex pipiens pallens [2] came out at 20%. In addition, the mortality at 0.25 mg/kg in the assay with Culex pipiens pallens [3] came out at 90%. In addition, the mortality at 0.5 mg/kg in the assay on Culex pipiens pallens [4] came out at 100%. Also, in the assay with Mythimna separata [6], the mortality at 10 mg/kg is 20%. In addition, the mortality at 20 mg/kg with Mythimna separata [7] is 100%.
As to `N#Cc1c(Br)c(C(F)(F)F)n(COC(=O)C(=O)OC2CCCCC2)c1-c1ccc(Cl)cc1`, the mortality at 0.1 mg/kg with Culex pipiens pallens [2] is 20%. Also, in the assay with Culex pipiens pallens [3], the mortality at 0.25 mg/kg worked out at 90%. In addition, the mortality at 0.5 mg/kg in the assay with Culex pipiens pallens [4] is 100%. The mortality at 10 mg/kg in the assay with Mythimna separata [6] worked out at 20%. Moreover, in the assay with Mythimna separata [7], the mortality at 20 mg/kg amounted to 100%.
`C/C=C/NC(=O)C(=O)OCn1c(-c2ccc(Cl)cc2)c(C#N)c(Br)c1C(F)(F)F`: in the assay on Tetranychus cinnabarinus [9], the mortality at 50 mg/kg stood at 89%. Moreover, in the assay with Tetranychus cinnabarinus [8], the mortality at 100 mg/kg worked out at 93%. In the assay with Tetranychus cinnabarinus [1], the mortality at 200 mg/kg was found to be 96%. Moreover, in the assay on Mythimna separata [6], the mortality at 10 mg/kg turned out to be 15%. In addition, the mortality at 20 mg/kg in the assay on Mythimna separata [7] amounted to 100%.
Turning to `N#Cc1c(Br)c(C(F)(F)F)n(COC(=O)C(=O)OCC(F)(F)F)c1-c1ccc(Cl)cc1`, in the assay with Tetranychus cinnabarinus [9], the mortality at 50 mg/kg was 92%. In the assay with Tetranychus cinnabarinus [8], the mortality at 100 mg/kg was 95%. Also, the mortality at 200 mg/kg in the assay on Tetranychus cinnabarinus [1] was 100%. Also, the mortality at 0.1 mg/kg in the assay on Culex pipiens pallens [2] is 0%. In addition, the mortality at 0.25 mg/kg in the assay on Culex pipiens pallens [3] stood at 30%. In addition, the mortality at 0.5 mg/kg in the assay with Culex pipiens pallens [4] came to 100%. For the same compound, the mortality at 10 mg/kg in the assay on Mythimna separata [6] was determined as 10%. The mortality at 20 mg/kg in the assay with Mythimna separata [7] is 70%.
On to `CC(C)OC(=O)C(=O)OCn1c(-c2ccc(Cl)cc2)c(C#N)c(Br)c1C(F)(F)F`, for which, in the assay on Tetranychus cinnabarinus [1], the mortality at 200 mg/kg amounted to 100%. Further, in the assay with Culex pipiens pallens [2], the mortality at 0.1 mg/kg was found to be 20%. Further, the mortality at 0.25 mg/kg with Culex pipiens pallens [3] was 100%. The mortality at 0.5 mg/kg with Culex pipiens pallens [4] was determined as 100%. Further, in the assay with Mythimna separata [6], the mortality at 10 mg/kg stood at 70%. The mortality at 20 mg/kg in the assay with Mythimna separata [7] worked out at 100%.
Turning to `CCC(C)OC(=O)C(=O)OCn1c(-c2ccc(Cl)cc2)c(C#N)c(Br)c1C(F)(F)F` (stereo unspecified), the mortality at 200 mg/kg in the assay on Tetranychus cinnabarinus [1] was found to be 100%. The mortality at 0.1 mg/kg in the assay with Culex pipiens pallens [2] was determined as 10%. In the assay with Culex pipiens pallens [3], the mortality at 0.25 mg/kg came to 90%. Moreover, the mortality at 0.5 mg/kg in the assay with Culex pipiens pallens [4] was found to be 100%. In addition, the mortality at 5 mg/kg with Mythimna separata [5] was 0%. Further, in the assay on Mythimna separata [6], the mortality at 10 mg/kg was 100%. For the same compound, in the assay on Mythimna separata [7], the mortality at 20 mg/kg came to 100%.
In the case of `CCOC(=O)C(=O)OCn1c(-c2ccc(Cl)cc2)c(C#N)c(Br)c1C(F)(F)F`, the mortality at 10 mg/kg in the assay on Mythimna separata [6] was 80%. The mortality at 20 mg/kg in the assay on Mythimna separata [7] was found to be 100%.
On to `CCOCCOC(=O)C(=O)OCn1c(-c2ccc(Cl)cc2)c(C#N)c(Br)c1C(F)(F)F`, for which the mortality at 0.1 mg/kg in the assay with Culex pipiens pallens [2] is 80%. Further, the mortality at 0.25 mg/kg in the assay with Culex pipiens pallens [3] was determined as 100%. In addition, in the assay with Culex pipiens pallens [4], the mortality at 0.5 mg/kg came out at 100%. Moreover, the mortality at 10 mg/kg in the assay on Mythimna separata [6] turned out to be 20%. Further, the mortality at 20 mg/kg in the assay on Mythimna separata [7] was 100%.
As for `C/C=C/OC(=O)C(=O)OCn1c(-c2ccc(Cl)cc2)c(C#N)c(Br)c1C(F)(F)F`, in the assay with Culex pipiens pallens [2], the mortality at 0.1 mg/kg stood at 80%. Further, in the assay with Culex pipiens pallens [3], the mortality at 0.25 mg/kg turned out to be 100%. For the same compound, the mortality at 0.5 mg/kg with Culex pipiens pallens [4] is 100%. Further, the mortality at 10 mg/kg in the assay on Mythimna separata [6] is 30%. For the same compound, the mortality at 20 mg/kg with Mythimna separata [7] is 100%.

Values taken from ChEMBL document CHEMBL3046536, “Synthesis, crystal structure, and insecticidal activity of novel N-alkyloxyoxalyl derivatives of 2-arylpyrrole” (2008).
